In ChEMBL document CHEMBL5096171, “Synthesis and Biological Evaluation of PSMA Ligands with Aromatic Residues and Fluorescent Conjugates Based on Them” (J Med Chem, 2021):
Values after ≈ are worked out from the molar mass of the structure shown. Values belong to the molecule of their own block, whether it stands above or below them.

Legend:
[1] = biological target: T1, Glutamate carboxypeptidase 2 (Homo sapiens, UniProt Q04609); assay: Inhibition of PSMA derived from human LNCaP cell lysate assessed as inhibition of NAAG hydrolysis incubated for 2 hrs in presence of NAAG by Amplex Red assay; assay type: subcellular
Target sequence in this assay (Q04609 whole entry): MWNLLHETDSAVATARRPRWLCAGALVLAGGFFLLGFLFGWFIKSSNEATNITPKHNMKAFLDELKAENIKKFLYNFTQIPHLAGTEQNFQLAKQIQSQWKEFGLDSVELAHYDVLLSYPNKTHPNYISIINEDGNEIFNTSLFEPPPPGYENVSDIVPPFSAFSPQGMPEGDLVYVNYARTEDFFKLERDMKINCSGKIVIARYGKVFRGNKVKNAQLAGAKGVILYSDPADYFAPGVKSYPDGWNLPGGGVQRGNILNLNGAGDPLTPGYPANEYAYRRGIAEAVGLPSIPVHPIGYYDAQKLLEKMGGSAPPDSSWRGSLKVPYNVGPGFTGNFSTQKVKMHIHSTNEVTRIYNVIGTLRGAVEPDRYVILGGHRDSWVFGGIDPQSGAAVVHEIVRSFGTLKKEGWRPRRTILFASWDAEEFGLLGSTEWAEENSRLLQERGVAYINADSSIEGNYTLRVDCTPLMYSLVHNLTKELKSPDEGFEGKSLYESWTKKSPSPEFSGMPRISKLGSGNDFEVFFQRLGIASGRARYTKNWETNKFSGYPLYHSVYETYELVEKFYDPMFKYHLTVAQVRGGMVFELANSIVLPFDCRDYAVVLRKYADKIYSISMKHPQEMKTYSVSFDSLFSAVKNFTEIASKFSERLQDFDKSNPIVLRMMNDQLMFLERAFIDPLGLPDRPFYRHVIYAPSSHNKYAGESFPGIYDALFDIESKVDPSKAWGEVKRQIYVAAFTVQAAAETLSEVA

[2] = Drug uptake in human PC-3 cells assessed as decrease in drug accumulation incubated for 1 hr in presence of (3S,7S,25S,28S)-33-Azido-25-benzyl-12-(3-chlorobenzyl)-28-(4-hydroxybenzyl)-5,13,20,23,26,29-hexaoxo-4,6,12,19,24,27,30-heptaazatritriacontane-1,3,7-tricarboxylic acid by flow cytometry; assay type: ADME, cell-based; settings: pc-3, 1 h
[3] = Drug uptake in human 22Rv1 cells assessed as decrease in drug accumulation incubated for 1 hr in presence of (3S,7S,25S,28S)-33-Azido-25-benzyl-12-(3-chlorobenzyl)-28-(4-hydroxybenzyl)-5,13,20,23,26,29-hexaoxo-4,6,12,19,24,27,30-heptaazatritriacontane-1,3,7-tricarboxylic acid by flow cytometry; assay type: ADME, cell-based; settings: cwr22r
[4] = Drug localisation in human LNCaP cells assessed as increase in fluorescent signal at 100 nM incubated for 2 hrs by Hoechst 33342 staining based fluorescence microscopy; assay type: ADME, cell-based; settings: 0.1 µM
[5] = Drug uptake in human LNCaP cells assessed as fold decrease in drug accumulation incubated for 1 hr in presence of (3S,7S,25S,28S)-33-Azido-25-benzyl-12-(3-chlorobenzyl)-28-(4-hydroxybenzyl)-5,13,20,23,26,29-hexaoxo-4,6,12,19,24,27,30-heptaazatritriacontane-1,3,7-tricarboxylic acid by flow cytometry; assay type: ADME, cell-based
[6] = biological target: T1, Glutamate carboxypeptidase 2; assay: Inhibition of PMSA in human LNCaP cells assessed as increase in fluorescent signal upto 100 nM incubated for 1 hr by flow cytometry (reference value: 2.11%); assay type: cell-based
Target sequence in this assay (Q04609 whole entry, looked up): as the sequence (Q04609 whole entry) above

[7] = biological target: T1, Glutamate carboxypeptidase 2; assay: Inhibition of PMSA in human 22Rv1 cells assessed as increase in fluorescent signal upto 100 nM incubated for 1 hr by flow cytometry (reference value: 2.97%); assay type: cell-based
Target sequence in this assay (Q04609 whole entry, looked up): as the sequence (Q04609 whole entry) above

[8] = biological target: T1, Glutamate carboxypeptidase 2; assay: Inhibition of PMSA in human PC-3 cells assessed as increase in fluorescent signal upto 100 nM incubated for 1 hr by flow cytometry (reference value: 1.14%); assay type: cell-based
Target sequence in this assay (Q04609 whole entry, looked up): as the sequence (Q04609 whole entry) above

[9] = system: LNCaP; assay: Cytotoxicity against human LNCaP cells assessed as reduction in cell viability incubated for 5 days by MTT assay; assay type: functional; settings: 120 h, time 5 day
[10] = system: PC-3; assay: Cytotoxicity against human PC-3 cells assessed as reduction in cell viability incubated for 5 days by MTT assay; assay type: functional; settings: PC-3, 120 h, time 5 day
[11] = Drug uptake in bloodstream of Balb/c nude mouse xenografted with human 22Rv1 cells at 0.449 mg/kg, IT administered as single dose measured after 24 hrs; assay type: ADME, organism-based, Blood, CWR22R; settings: in vivo, other
[12] = Drug uptake in skin capillary of Balb/c nude mouse xenografted with human 22Rv1 cells at 0.449 mg/kg, IT administered as single dose measured after 24 hrs; assay type: ADME, organism-based, Skin of body, CWR22R; settings: in vivo, other
[13] = Drug excretion in Balb/c nude mouse xenografted with human 22Rv1 cells assessed as non-specifically bound drug at 0.449 mg/kg, IT administered as single dose measured after 24 hrs; assay type: ADME, organism-based, CWR22R; settings: in vivo, other
[14] = Drug excretion in […] at 0.449 mg/kg, IT administered as single dose measured after 24 hrs; assay type: ADME, organism-based, CWR22R; settings: in vivo, other
[15] = Drug uptake in human 22Rv1 cells xenografted in Balb/c nude mouse assessed as amount of fluorescence intensity at 0.449 mg/kg, IT administered as single dose measured after 24 hrs by IVIS Spectrum CT analysis; assay type: ADME, organism-based, CWR22R; settings: in vivo, other
[16] = Drug uptake in human PC-3 cells xenografted in Balb/c nude mouse assessed as amount of fluorescence intensity at 0.449 mg/kg, IT administered as single dose measured after 24 hrs by IVIS Spectrum CT analysis; assay type: ADME, organism-based; settings: in vivo, other
[17] = n-Octanol/aqueous buffer distribution coefficient, log D of compound at pH 6.4 by shake flask method; assay type: physicochemical
[18] = Water solubility of the compound; assay type: physicochemical
[19] = Drug uptake in human LNCaP cells assessed as drug accumulation by measuring fluorescence signal at 4 uM incubated for 30 mins by flow cytometry; assay type: ADME, cell-based; settings: 0.5 h
[20] = Drug uptake in human 22Rv1 cells assessed as drug accumulation by measuring fluorescence signal at 4 uM incubated for 30 mins by flow cytometry; assay type: ADME, cell-based; settings: cwr22r, 0.5 h
[21] = Drug uptake in human PC-3 cells assessed as drug accumulation by measuring fluorescence signal at 4 uM incubated for 30 mins by flow cytometry; assay type: ADME, cell-based; settings: pc-3, 0.5 h
[22] = Drug uptake in human LNCaP cells assessed as decrease in drug accumulation incubated for 1 hr in presence of (3S,7S,25S,28S)-33-Azido-25-benzyl-12-(3-chlorobenzyl)-28-(4-hydroxybenzyl)-5,13,20,23,26,29-hexaoxo-4,6,12,19,24,27,30-heptaazatritriacontane-1,3,7-tricarboxylic acid by flow cytometry; assay type: ADME, cell-based

Ki [1]: 0.0026 µM
Drug uptake [2]: Active
Drug uptake [3]: Active
Drug uptake [4]: Active
fold change (FC) [5]: 4.1
inhibition [6]: 95%
inhibition [7]: 35.3%
inhibition [8]: 2.79%
Drug uptake [11]: Active
Drug uptake [12]: Active
Drug excretion [13]: Active
Drug excretion [14]: Active
Activity [15]: 1.5 10^9(p/s)(uW/cm^2)
Activity [16]: 1.5 10^9(p/s)(uW/cm^2)
logD [17]: -1.2
solubility [18]: 7000 µg/mL (≈ 4.05 mM)
Compound: CN1/C(=C/C=C/C=C/C2=[N+](CCCCCC(=O)NCc3cn(CCCNC(=O)[C@H](Cc4ccc(O)cc4)NC(=O)[C@H](Cc4ccccc4)NC(=O)CCC(=O)NCCCCCC(=O)N(CCCC[C@H](NC(=O)N[C@@H](CCC(=O)O)C(=O)O)C(=O)O)Cc4cccc(Cl)c4)nn3)c3ccc(S(=O)(=O)[O-])cc3C2(C)C)C(C)(C)c2cc(S(=O)(=O)O)ccc21
CC50 [9]: > 100 µM
CC50 [10]: > 100 µM

Drug uptake [19]: 83.8%
Drug uptake [20]: 14.4%
Drug uptake [21]: 7.6%
Drug uptake [2]: Active
Drug uptake [3]: Active
Drug uptake [22]: Active
Compound: O=C(O)CC[C@H](NC(=O)N[C@@H](CCCCN(Cc1cccc(Cl)c1)C(=O)CCCCCNC(=O)CCC(=O)N[C@@H](Cc1ccccc1)C(=O)N[C@@H](Cc1ccc(O)cc1)C(=O)NCCCn1cc(CNC(=O)c2cccc3c2C(=O)OC32c3ccc(O)cc3Oc3cc(O)ccc32)nn1)C(=O)O)C(=O)O
